Source: patent publication US20190233884A1 (University of Southern California, priority 2016, published 2019)

Tested on: patients with refractory metastatic colorectal cancer (mCRC)
Assay: PFS, OS and disease control in the training (evaluation) cohort of refractory mCRC patients receiving TAS-102 (n=52, Japan), by baseline characteristics, SNP genotype and toxicity
Assay type: in vivo, human
Conditions: for Overall Survival Median, months / Progression-Free Survival Median, months / Overall Survival HR / Progression-Free Survival HR / HR for OS / HR for PFS: evaluation cohort
Protocol: All patients underwent the treatment in salvage-line setting. […]
(§1) Genomic DNA was extracted from peripheral whole blood in patients of all cohorts using the QIAmp Kit (Qiagen, Valencia, Calif., USA) according to the manufacturer's protocol (www.qiagen.com). The candidate SNPs were genotyped using PCR-based direct DNA sequence analysis by ABI 3100A Capillary Genetic Analyzer and Sequencing Scanner v1.0 (Applied Biosystems). Amplification of extracted DNA was carried out using both forward and reverse primers for each gene polymorphism as shown in Table 1. […] The investigators analyzing SNPs were blinded to the clinical data of the study patients.
The primary endpoint in this study was progression-free survival (PFS), and the secondary endpoints were overall survival (OS) and disease control rate (DCR). PFS was calculated from the date of starting treatment to the first observation of disease progression or death from any cause. If a patient had no disease progression or death, PFS was censored at the date of last follow up. OS was calculated from the date of starting treatment until the date of death from any cause or the date of the last follow-up, at which point OS was censored. The disease control rate (DCR) was defined as the proportion of patients who achieved a stable disease (SD) or […] according to RECISTv1.1. Chi-square test was used to examine the difference in baseline patient characteristics among the three cohorts. Allelic distribution of all SNPs by ethnicity for deviation from Hardy-Weinberg equilibrium and the allelic frequencies of SNPs were tested using the Chi-square tests with one degree of freedom. The associations between candidate SNPs and disease control, and toxicities were examined using contingency tables and Fisher's exact test. The associations of SNPs with PFS and OS were analysed using Kaplan-Meier curves and the log-rank test. Because the true mode of inheritance of candidate SNPs was not established yet, a codominant or dominant genetic model if appropriate was considered.
All patients underwent the treatment in salvage-line setting. […] In all patients, adverse events were graded according to the Common Terminology Criteria for Adverse Events, version 4.0. […]
as §1, with “tested” for “genotyped”, “Biosystems).” for “Biosystems). Amplification of extracted DNA was carried out using both forward and reverse primers for each gene polymorphism as shown in Table 1.”, “data.” for “data of the study patients.”
The primary endpoint in this study was progression-free survival (PFS), and the secondary endpoints were overall survival (OS) and disease control rate (DCR).

[1] = Performance status ECOG 1 vs ECOG 0, univariate
[2] = Peritoneal No vs Yes, univariate
[3] = Pre-chemo numbers ≥4 vs <4, univariate
[4] = Primary tumor resection No vs Yes, univariate
[5] = Prior EGFR No vs Yes, univariate
[6] = Prior REGORA No vs Yes, univariate
[7] = Prior bev No vs Yes, univariate
[8] = Tumor site Left vs Right, univariate
[9] = XRCC3 rs861539 G/A vs G/G, univariate
[10] = p21 rs1059234 Any C vs T/T, multivariable
[11] = p21 rs1059234 Any C vs T/T, univariate
[12] = p21 rs1059234 C/C vs T/T, multivariable
[13] = p21 rs1059234 C/C vs T/T, univariate
[14] = p21 rs1059234 T/C vs T/T, multivariable
[15] = p21 rs1059234 T/C vs T/T, univariate
[16] = p21 rs1801270 A/C vs A/A, multivariable
[17] = p21 rs1801270 A/C vs A/A, univariate

## Trifluridine/tipiracil [TAS-102]
Number of metastases ≤2
  Overall Survival Median, months: 8.3 months
  Progression-Free Survival Median, months: 2.7 months
Performance status ECOG 0
  Overall Survival Median, months: 8.7 months
  Progression-Free Survival Median, months: 2.9 months
Performance status ECOG 1
  Overall Survival Median, months: 7.2 months
  Progression-Free Survival Median, months: 2.7 months
[1]
  Overall Survival HR: 1.42
  Progression-Free Survival HR: 1.06
Peritoneal No
  Overall Survival Median, months: 8.3 months
  Progression-Free Survival Median, months: 2.3 months
[2]
  Overall Survival HR: 0.84
  Progression-Free Survival HR: 1.48
Peritoneal Yes
  Overall Survival Median, months: 6.3 months
  Progression-Free Survival Median, months: 3.1 months
Pre-chemo numbers <4
  Overall Survival Median, months: 8.7 months
  Progression-Free Survival Median, months: 3.0 months
Pre-chemo numbers ≥4
  Overall Survival Median, months: 6.3 months
  Progression-Free Survival Median, months: 2.1 months
[3]
  Overall Survival HR: 2.48
  Progression-Free Survival HR: 1.73
Primary tumor resection No
  Overall Survival Median, months: 8.1+ months
  Progression-Free Survival Median, months: 2.1 months
[4]
  Overall Survival HR: 1.72
  Progression-Free Survival HR: 1.39
Primary tumor resection Yes
  Overall Survival Median, months: 8.1 months
  Progression-Free Survival Median, months: 3.0 months
Prior EGFR No
  Overall Survival Median, months: 15.6+ months
  Progression-Free Survival Median, months: 3.7 months
[5]
  Overall Survival HR: 0.35
  Progression-Free Survival HR: 0.49
Prior EGFR Yes
  Overall Survival Median, months: 6.3 months
  Progression-Free Survival Median, months: 2.1 months
Prior REGORA No
  Overall Survival Median, months: 14.8+ months
  Progression-Free Survival Median, months: 3.7 months
[6]
  Overall Survival HR: 0.50
  Progression-Free Survival HR: 0.65
Prior REGORA Yes
  Overall Survival Median, months: 8.1 months
  Progression-Free Survival Median, months: 2.1 months
Prior bev No
  Overall Survival Median, months: 4.1 months
  Progression-Free Survival Median, months: 2.5 months
[7]
  Overall Survival HR: 3.43
  Progression-Free Survival HR: 1.86
Prior bev Yes
  Overall Survival Median, months: 8.3 months
  Progression-Free Survival Median, months: 2.9 months
Sex Female
  Overall Survival Median, months: 8.3 months
  Progression-Free Survival Median, months: 3.4 months
Sex Female vs Male, univariate
  Overall Survival HR: 0.47
  Progression-Free Survival HR: 0.60
Sex Male
  Overall Survival Median, months: 4.9 months
  Progression-Free Survival Median, months: 2.1 months
Tumor site Left
  Overall Survival Median, months: 8.1 months
  Progression-Free Survival Median, months: 2.9 months
[8]
  Overall Survival HR: 0.97
  Progression-Free Survival HR: 1.30
Tumor site Right
  Overall Survival Median, months: 8.7 months
  Progression-Free Survival Median, months: 3.3 months
XRCC3 rs861539, multivariable
  HR for OS: 0.31
  HR for PFS: 0.52
[9]
  HR for OS: 0.25
  HR for PFS: 0.44
p21 rs1059234 Any C
  OS median, months (95% CI): 12.4 (5.4, 15.6+) months
  PFS median, months (95% CI): 2.7 (2.1, 3.5) months
[10]
  OS HR (95% CI)‡: 0.50 (0.20, 1.25)
  PFS HR (95% CI) ‡: 0.74 (0.37, 1.49)
[11]
  OS HR (95% CI)†: 0.64 (0.27, 1.56)
  PFS HR (95% CI) †: 0.88 (0.44, 1.74)
p21 rs1059234 C/C
  OS median, months (95% CI): 6.3 (2.7, 10.7+) months
  PFS median, months (95% CI): 2.9 (1.6, 4.9) months
[12]
  OS HR (95% CI)‡: 0.67 (0.21, 2.12)
  PFS HR (95% CI) ‡: 0.73 (0.30, 1.74)
[13]
  OS HR (95% CI)†: 0.76 (0.25, 2.35)
  PFS HR (95% CI) †: 0.95 (0.42, 2.16)
p21 rs1059234 T/C
  OS median, months (95% CI): 12.4 (5.3, 15.6+) months
  PFS median, months (95% CI): 2.7 (2.1, 3.5) months
[14]
  OS HR (95% CI)‡: 0.42 (0.15, 1.19)
  PFS HR (95% CI) ‡: 0.75 (0.35, 1.60)
[15]
  OS HR (95% CI)†: 0.59 (0.22, 1.57)
  PFS HR (95% CI) †: 0.84 (0.40, 1.76)
p21 rs1059234 T/T
  OS median, months (95% CI): 7.2 (3.3, 8.7) months
  PFS median, months (95% CI): 3.3 (1.6, 4.1) months
p21 rs1801270 A/A
  OS median, months (95% CI): 7.2 (3.3, 8.7) months
  PFS median, months (95% CI): 3.3 (1.6, 4.1) months
p21 rs1801270 A/C
  OS median, months (95% CI): 12.4 (5.3, 15.6+) months
  PFS median, months (95% CI): 2.3 (1.8, 3.5) months
[16]
  OS HR (95% CI)‡: 0.39 (0.13, 1.11)
  PFS HR (95% CI) ‡: 0.72 (0.34, 1.55)
[17]
  OS HR (95% CI)†: 0.53 (0.19, 1.47)
  PFS HR (95% CI) †: 0.82 (0.39, 1.74)
p21 rs1801270 Any C
  OS median, months (95% CI): 12.4 (5.4, 15.6+) months
  PFS median, months (95% CI): 2.7 (2.1, 3.5) months
p21 rs1801270 Any C vs A/A, multivariable
  OS HR (95% CI)‡: 0.50 (0.20, 1.25)
